Results from patent US12410153B2, “Compounds, compositions and methods” (Avalo Therapeutics, Inc., priority 2014, dated 2025).
Like-named read-outs stand apart in the source and are kept apart here.

Key:
[1] = test system: systemic blood pressure and heart rate; test: Blood pressure profile in chronically instrumented (telemetered) rats; type: in vivo, rat; details: for DAP change / PP change / SAP change / Activity change / HR change / MAP change: 1 hour post dose, vehicle subtracted, mean ± SEM; for Activity change / HR change / MAP change: listed as crystalline Form II of Compound (I)
Procedure: A single oral gavage dose was administered (volume: 5 mL/kg). […] Following the completion of the Latin square, two additional dose concentrations were evaluated (0.6 and 10 mg/kg, n=3 per group).
All IV doses were administered in manually restrained rats via tail vena-puncture. It should be noted that vehicle controls were also administered.
A 24-hour recording was performed prior to dosing (vehicle alone) and after each oral dose.

[2] = molecular target: GluN1a/GluN2B human receptors (Homo sapiens, UniProt Q05586+Q13224); test: Radioligand binding, L(tk−) cell membranes expressing human GluN1a/GluN2B; design: expressed in transfected cells; host or cells: L(tk−) cells (mouse fibroblasts), dexamethasone-inducible expression; details: geometric mean
[3] = Polymorph stability (slurry and heating, XRPD); type: physicochemical; details: between room temperature and 121° C.
Procedure: Crystalline Form II of Compound (I) was characterized using X-ray powder diffraction (XRPD) (FIG. 1A). The XRPD pattern corresponds to an anhydrous form denoted as Form II, which is highly crystalline. In addition to Form II, Compound (I) can exist as another anhydrous polymorph, denoted as Form I. The XRPD patterns of these phases are shown in FIG. 1B. A slurry experiment was performed at room temperature by adding approximately equal proportions of the two anhydrous phases to methyl-tert-butyl ether.

[4] = Human pharmacokinetic study, single ascending oral doses; type: in vivo; details: for AUC(0-inf) / AUC(0-t) / Cmax / Tmax / half-life: male, human, plasma, oral
Procedure: Twenty-four healthy, young male subjects were assigned to 1 of 3 sequential treatment panels (A, B, and C). For each panel of 8 subjects, 2 subjects received placebo and 6 subjects were administered single ascending oral doses of crystalline Form II of Compound (I) with a minimum 7-day washout between each dose: Panel A (0.1, 0.2, 0.5, 1, and 2 mg); Panel B (2, 4, 8, and 15 mg, and 4 mg with food); and Panel C (15 and 20 mg). Blood samples were collected pre-dose and 0.5, 1, 1.5, 2, 3, 4, 6, 9, 12, 18, 24, 30, 48, and 72 h post dose. Plasma samples were analyzed for Form II concentrations using reversed phase high performance liquid chromatography with tandem mass spectrometric detection (Merck Research Laboratories). The analytical range was 0.5 to 500 nM (0.180 to 180 ng/mL).

[5] = molecular target: T1, NMDA-GluN2B receptors, rhesus monkey frontal cortex homogenate (Macaca mulatta, UniProt F6T8S6); test: Radioligand binding, rhesus frontal cortex homogenate; details: geometric mean
T1 construct: frontal cortex homogenate (dog and rhesus monkey); from tissue; host or cells: rhesus monkey frontal cortex homogenate
Procedure: Radioligand binding assays were performed at room temperature (or 37° C.) in 96-well microtiter plates with a final assay volume of […] in 20 mM HEPES buffer (pH 7.4) containing 150 mM NaCl. […] Nonspecific binding was assessed using N-(3-chlorobenzyl)-4-iodobenzimidamide (final concentration, 10 μM), and total binding was measured by addition of DMSO (final concentration, 2%). L(tk−) cell membranes expressing human GluN1a/GluN2B receptors (final concentration, 40 pM) and [^3H]-[(E)-N1-(2-methoxybenzyl)-cinnamamidine] (final concentration, 1 nM) were added to all wells of the microtiter plate. After 3 h (24 h or 48 h) of incubation at room temperature (or 37° C.), samples were filtered through Packard GF/B filters (presoaked in 0.05% polyethylenimine [PEI; Sigma P-3143]) and washed 10 times with 1 mL of cold 20 mM HEPES buffer per wash. After vacuum drying of the filter plates, 50 μL of Packard Microscint-20 was added and the bound radioactivity determined in a Packard TopCount.
Analogous binding experiments, to those described above for the cloned human receptor expressed in L(tk−) cells, were also performed using whole brain homogenate (rat), frontal cortex homogenate (dog and rhesus monkey), and temporal cortex homogenate (human).

[6] = 1 mg/kg PO in β1 AR blocked animals (atenolol 1 mg/kg), 1 hour post dosing

GluN1a/GluN2B human receptors, sequence (Q13224 27-1484, other chains not shown): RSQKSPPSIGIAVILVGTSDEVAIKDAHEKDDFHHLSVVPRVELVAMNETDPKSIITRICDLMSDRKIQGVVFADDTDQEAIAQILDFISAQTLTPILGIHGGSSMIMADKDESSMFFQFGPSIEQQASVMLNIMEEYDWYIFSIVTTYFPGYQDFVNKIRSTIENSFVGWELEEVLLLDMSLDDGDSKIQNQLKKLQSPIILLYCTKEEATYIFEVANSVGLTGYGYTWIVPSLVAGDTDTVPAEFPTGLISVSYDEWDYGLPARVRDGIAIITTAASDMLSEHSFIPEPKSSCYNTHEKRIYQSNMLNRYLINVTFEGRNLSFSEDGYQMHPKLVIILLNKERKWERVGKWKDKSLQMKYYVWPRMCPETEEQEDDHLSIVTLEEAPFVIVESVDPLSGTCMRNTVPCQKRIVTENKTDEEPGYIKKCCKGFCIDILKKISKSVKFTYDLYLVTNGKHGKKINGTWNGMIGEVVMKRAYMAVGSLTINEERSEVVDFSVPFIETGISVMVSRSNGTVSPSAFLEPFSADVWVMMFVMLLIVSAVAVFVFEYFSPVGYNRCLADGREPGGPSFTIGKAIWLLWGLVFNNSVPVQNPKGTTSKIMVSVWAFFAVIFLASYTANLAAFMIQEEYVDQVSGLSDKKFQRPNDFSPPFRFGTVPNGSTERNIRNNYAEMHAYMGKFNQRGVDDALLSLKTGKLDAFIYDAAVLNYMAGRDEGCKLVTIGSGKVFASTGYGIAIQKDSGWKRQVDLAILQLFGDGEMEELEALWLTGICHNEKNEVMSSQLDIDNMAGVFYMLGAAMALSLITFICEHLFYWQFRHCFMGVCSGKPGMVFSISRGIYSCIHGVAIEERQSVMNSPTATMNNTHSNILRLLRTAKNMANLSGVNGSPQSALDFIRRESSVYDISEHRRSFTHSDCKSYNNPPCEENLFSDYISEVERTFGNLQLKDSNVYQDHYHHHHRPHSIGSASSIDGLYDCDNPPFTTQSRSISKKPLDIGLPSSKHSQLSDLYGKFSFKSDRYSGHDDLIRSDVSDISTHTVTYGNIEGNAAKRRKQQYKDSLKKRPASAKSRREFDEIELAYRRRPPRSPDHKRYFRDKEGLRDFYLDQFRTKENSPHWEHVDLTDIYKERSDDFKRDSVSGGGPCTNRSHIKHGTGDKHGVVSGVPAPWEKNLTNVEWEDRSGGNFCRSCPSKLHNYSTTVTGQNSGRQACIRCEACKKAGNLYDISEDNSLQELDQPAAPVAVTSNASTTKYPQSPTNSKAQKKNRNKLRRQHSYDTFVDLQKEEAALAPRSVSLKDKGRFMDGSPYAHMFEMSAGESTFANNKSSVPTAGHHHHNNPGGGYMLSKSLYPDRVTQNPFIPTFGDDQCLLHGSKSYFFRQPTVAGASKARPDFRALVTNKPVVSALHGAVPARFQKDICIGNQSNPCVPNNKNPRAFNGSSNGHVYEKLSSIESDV
T1 sequence (F6T8S6 29-1484): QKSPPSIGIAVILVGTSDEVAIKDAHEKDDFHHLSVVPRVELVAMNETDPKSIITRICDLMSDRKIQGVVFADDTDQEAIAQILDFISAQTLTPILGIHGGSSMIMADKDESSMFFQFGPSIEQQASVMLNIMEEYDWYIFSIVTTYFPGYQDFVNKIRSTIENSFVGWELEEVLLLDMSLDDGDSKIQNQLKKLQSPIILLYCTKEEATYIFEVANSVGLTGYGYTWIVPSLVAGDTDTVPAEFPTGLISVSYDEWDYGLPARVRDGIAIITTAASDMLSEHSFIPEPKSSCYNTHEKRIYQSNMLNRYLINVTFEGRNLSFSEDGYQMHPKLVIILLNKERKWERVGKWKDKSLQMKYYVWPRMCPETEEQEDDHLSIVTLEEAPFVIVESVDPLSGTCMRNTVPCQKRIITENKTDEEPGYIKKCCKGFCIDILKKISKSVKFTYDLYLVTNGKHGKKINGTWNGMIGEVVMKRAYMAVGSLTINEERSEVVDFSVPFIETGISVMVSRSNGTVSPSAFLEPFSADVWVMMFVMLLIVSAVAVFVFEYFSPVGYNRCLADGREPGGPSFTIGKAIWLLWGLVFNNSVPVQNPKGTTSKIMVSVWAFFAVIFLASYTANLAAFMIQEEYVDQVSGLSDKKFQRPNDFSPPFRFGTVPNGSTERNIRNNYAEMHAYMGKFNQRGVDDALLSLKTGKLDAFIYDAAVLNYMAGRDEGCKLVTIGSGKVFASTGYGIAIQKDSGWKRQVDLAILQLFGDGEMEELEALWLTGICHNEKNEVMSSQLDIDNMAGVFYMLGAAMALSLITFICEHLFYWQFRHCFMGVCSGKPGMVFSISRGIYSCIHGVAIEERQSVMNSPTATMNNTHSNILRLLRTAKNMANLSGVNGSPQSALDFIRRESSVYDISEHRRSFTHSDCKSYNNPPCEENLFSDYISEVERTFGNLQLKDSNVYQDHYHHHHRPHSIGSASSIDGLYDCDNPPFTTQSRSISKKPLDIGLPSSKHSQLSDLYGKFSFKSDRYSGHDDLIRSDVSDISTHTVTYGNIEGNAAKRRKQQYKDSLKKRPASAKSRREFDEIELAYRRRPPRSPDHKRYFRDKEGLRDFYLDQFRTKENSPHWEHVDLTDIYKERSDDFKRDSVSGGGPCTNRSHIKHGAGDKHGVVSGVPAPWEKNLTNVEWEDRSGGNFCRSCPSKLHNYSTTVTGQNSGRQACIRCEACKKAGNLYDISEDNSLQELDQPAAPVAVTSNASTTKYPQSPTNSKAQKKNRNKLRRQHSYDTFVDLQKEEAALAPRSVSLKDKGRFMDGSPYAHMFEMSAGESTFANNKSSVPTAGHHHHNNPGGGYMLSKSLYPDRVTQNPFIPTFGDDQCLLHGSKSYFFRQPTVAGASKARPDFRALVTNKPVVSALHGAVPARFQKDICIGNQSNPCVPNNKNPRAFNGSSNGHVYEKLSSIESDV

Cc1ccc(COC(=O)N2CC[C@H](CNc3ncccn3)[C@H](F)C2)cc1 [Form II, 4-methylbenzyl (3S, 4R)-3-fluoro-4-[(pyrimidin-2-ylamino)methyl] piperidine-1-carboxylate]
DAP change ([1]; 0.3 mg/kg PO): 4.1 ± 0.9 mmHg | PP change ([1]; 0.3 mg/kg PO): 0.1 ± 1.0 mmHg | SAP change ([1]; 0.3 mg/kg PO): 4.3 ± 1.2 mmHg | Activity change ([1]; 0.3 mg/kg PO): 0.012±0.025 arbitrary unit | HR change ([1]; 0.3 mg/kg PO): 15±10 bpm | MAP change ([1]; 0.3 mg/kg PO): 4.2±0.9 mmHg | DAP change ([1]; 0.6 mg/kg PO): 7.8 ± 1.1 mmHg | PP change ([1]; 0.6 mg/kg PO): −1.5 ± 1.4 mmHg | SAP change ([1]; 0.6 mg/kg PO): 6.3 ± 1.6 mmHg | Activity change ([1]; 0.6 mg/kg PO): 0.003±0.033 arbitrary unit | HR change ([1]; 0.6 mg/kg PO): 10±15 bpm | MAP change ([1]; 0.6 mg/kg PO): 6.8±1.2 mmHg | MAP increase with dosing ([1]; 1 mg/kg PO in the setting of α1 AR blockade (prazosin 200 μg/kg)): 11.3±2.0 mmHg | HR change vs pre-blockade baseline ([1]; 1 mg/kg PO in the setting of α1 AR blockade (prazosin 200 μg/kg), 1 hour post dosing): 118±20 bpm | HR increase post-dosing ([1]; 1 mg/kg PO in β1 AR blocked animals (atenolol 1 mg/kg)): 53±17 bpm | HR change vs pre-blockade baseline [1, 6]: −7±17 bpm | MAP change vs pre-blockade baseline [1, 6]: 5.8±4.8 mmHg | DAP change ([1]; 1.0 mg/kg PO): 15.2 ± 3.0 mmHg | PP change ([1]; 1.0 mg/kg PO): 1.4 ± 1.1 mmHg | SAP change ([1]; 1.0 mg/kg PO): 16.8 ± 3.7 mmHg | Activity change ([1]; 1.0 mg/kg PO): 0.049±0.037 arbitrary unit | HR change ([1]; 1.0 mg/kg PO): 34±13 bpm | MAP change ([1]; 1.0 mg/kg PO): 15.7±3.2 mmHg | DAP change ([1]; 3.0 mg/kg PO): 15.0 ± 2.0 mmHg | PP change ([1]; 3.0 mg/kg PO): 4.0 ± 0.9 mmHg | SAP change ([1]; 3.0 mg/kg PO): 19.2 ± 2.4 mmHg | Activity change ([1]; 3.0 mg/kg PO): 0.174±0.048 arbitrary unit | HR change ([1]; 3.0 mg/kg PO): 66±9 bpm | MAP change ([1]; 3.0 mg/kg PO): 17.1±2.3 mmHg | DAP change ([1]; 10 mg/kg PO): 17.3 ± 1.9 mmHg | PP change ([1]; 10 mg/kg PO): 3.1 ± 1.3 mmHg | SAP change ([1]; 10 mg/kg PO): 20.7 ± 2.4 mmHg | Activity change ([1]; 10 mg/kg PO): 0.232±0.057 arbitrary unit | HR change ([1]; 10 mg/kg PO): 71±25 bpm | MAP change ([1]; 10 mg/kg PO): 19.1±2.4 mmHg | Ki ([2]; 4° C.): 1.8 nM | Ki ([2]; 37° C.): 31 nM | Ki ([2]; room temp.): 4.9 nM | thermodynamic stability of polymorph [3]: thermodynamically stable form | decrease in Cmax, fed vs fasted ([4]; 4 mg): ~56% | delay in Tmax, fed vs fasted ([4]; 4 mg): ~1 h | overall extent of absorption (AUC), fed vs fasted ([4]; 4 mg): not affected | AUC(0-inf) ([4]; 2 mg, fasted, mean): 493 ng·h/mL | AUC(0-t) ([4]; 2 mg, fasted, mean): 398 ng·h/mL | Cmax ([4]; 2 mg, fasted, mean): 51.5 ng/mL | Tmax ([4]; 2 mg, fasted, mean, read-out: Tmax): 1.08 h | half-life ([4]; 2 mg, fasted, mean, read-out: t1/2 (converted)): 16.1 h | AUC(0-inf) ([4]; 4 mg, 4 mg (fed), mean): 1140 ng·h/mL | AUC(0-t) ([4]; 4 mg, 4 mg (fed), mean): 1080 ng·h/mL | Cmax ([4]; 4 mg, 4 mg (fed), mean): 80 ng/mL | Tmax ([4]; 4 mg, 4 mg (fed), mean, read-out: Tmax): 2 h | half-life ([4]; 4 mg, 4 mg (fed), mean, read-out: t1/2 (converted)): 17.3 h | AUC(0-inf) ([4]; 4 mg, fasted, mean): 1110 ng·h/mL | AUC(0-t) ([4]; 4 mg, fasted, mean): 1060 ng·h/mL | Cmax ([4]; 4 mg, fasted, mean): 141 ng/mL | Tmax ([4]; 4 mg, fasted, mean, read-out: Tmax): 0.67 h | half-life ([4]; 4 mg, fasted, mean, read-out: t1/2 (converted)): 16.9 h | AUC(0-inf) ([4]; 8 mg, fasted, mean): 2260 ng·h/mL | AUC(0-t) ([4]; 8 mg, fasted, mean): 2150 ng·h/mL | Cmax ([4]; 8 mg, fasted, mean): 212 ng/mL | Tmax ([4]; 8 mg, fasted, mean, read-out: Tmax): 0.92 h | half-life ([4]; 8 mg, fasted, mean, read-out: t1/2 (converted)): 17 h | AUC(0-inf) ([4]; 15 mg, fasted, mean): 4400 ng·h/mL | AUC(0-t) ([4]; 15 mg, fasted, mean): 3520 ng·h/mL | Cmax ([4]; 15 mg, fasted, mean): 385 ng/mL | Tmax ([4]; 15 mg, fasted, mean, read-out: Tmax): 1.04 h | half-life ([4]; 15 mg, fasted, mean, read-out: t1/2 (converted)): 16.8 h | AUC(0-inf) ([4]; 20 mg, fasted, mean): 5910 ng·h/mL | AUC(0-t) ([4]; 20 mg, fasted, mean): 5590 ng·h/mL | Cmax ([4]; 20 mg, fasted, mean): 590 ng/mL | Tmax ([4]; 20 mg, fasted, mean, read-out: Tmax): 1 h | half-life ([4]; 20 mg, fasted, mean, read-out: t1/2 (converted)): 15.9 h | Tmax ([4]; across all fasted dose levels, read-out: mean Tmax): ≤ 1 h | half-life ([4]; over the 4- to 20-mg dose range, read-out: terminal elimination half-life): 12 to 17 h | Cmax and AUC vs dose ([4]; over the dose range studied): dose-proportional | Ki ([5]; 37° C.): 14 nM | Ki ([5]; room temp.): 3.1 nM
